Results reported in patent publication US20150272939A1, “Identification of Small Molecule Inhibitors of Jumonji AT-Rich Interactive Domain 1A (JARID1A) and 1B (JARID1B) Histone Demethylase” (Yale University, priority 2012, published 2015).
Structures can show the parent of a compound that is named as a salt. Where two headings read alike, the source gives them in different places.

Legend:
[1] = molecular target: T1, JARID1B (Homo sapiens, UniProt Q9UGL1); assay: FLAG-JARID1B histone demethylase assay with AlphaScreen detection (HTS and dose response); assay type: biochemical; settings: for Assay − Artifact Signal (percent): assay signal minus artifact signal; for inhibition at 20 µM: read-out: Inhibitory effect (percent); for Assay Signal (percent) / Validation result of HTS active: effect of the compound in the JARID1B AlphaScreen demethylase assay: validation of HTS actives; for Assay Signal (percent): effect of compound in JARID1B AlphaScreen assay; for Validation result of HTS active: effect of the compound in the JARID1B AlphaScreen demethylase assay: total signal before subtraction of artifact signal;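 as to Assay Signal (percent): compound tested at 20 µM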;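 as to Assay − Artifact Signal (percent): compound tested at 20 µM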;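 as to all read-outs here: FLAG-tagged JARID1B at 4 nM acting on a biotinylated H3K4me3 peptide, demethylation read by AlphaScreen luminescence, with hits checked against bio-H3K4me2 without enzyme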
T1 construct: The FLAG tagged full length JARID1B enzyme was expressed in Sf21 insect cells using FLAG-JARID1B baculoviruses; FLAG (N); made in house; host or cells: Sf21 insect cells (baculovirus)
T1 sequence (Q9UGL1 whole entry): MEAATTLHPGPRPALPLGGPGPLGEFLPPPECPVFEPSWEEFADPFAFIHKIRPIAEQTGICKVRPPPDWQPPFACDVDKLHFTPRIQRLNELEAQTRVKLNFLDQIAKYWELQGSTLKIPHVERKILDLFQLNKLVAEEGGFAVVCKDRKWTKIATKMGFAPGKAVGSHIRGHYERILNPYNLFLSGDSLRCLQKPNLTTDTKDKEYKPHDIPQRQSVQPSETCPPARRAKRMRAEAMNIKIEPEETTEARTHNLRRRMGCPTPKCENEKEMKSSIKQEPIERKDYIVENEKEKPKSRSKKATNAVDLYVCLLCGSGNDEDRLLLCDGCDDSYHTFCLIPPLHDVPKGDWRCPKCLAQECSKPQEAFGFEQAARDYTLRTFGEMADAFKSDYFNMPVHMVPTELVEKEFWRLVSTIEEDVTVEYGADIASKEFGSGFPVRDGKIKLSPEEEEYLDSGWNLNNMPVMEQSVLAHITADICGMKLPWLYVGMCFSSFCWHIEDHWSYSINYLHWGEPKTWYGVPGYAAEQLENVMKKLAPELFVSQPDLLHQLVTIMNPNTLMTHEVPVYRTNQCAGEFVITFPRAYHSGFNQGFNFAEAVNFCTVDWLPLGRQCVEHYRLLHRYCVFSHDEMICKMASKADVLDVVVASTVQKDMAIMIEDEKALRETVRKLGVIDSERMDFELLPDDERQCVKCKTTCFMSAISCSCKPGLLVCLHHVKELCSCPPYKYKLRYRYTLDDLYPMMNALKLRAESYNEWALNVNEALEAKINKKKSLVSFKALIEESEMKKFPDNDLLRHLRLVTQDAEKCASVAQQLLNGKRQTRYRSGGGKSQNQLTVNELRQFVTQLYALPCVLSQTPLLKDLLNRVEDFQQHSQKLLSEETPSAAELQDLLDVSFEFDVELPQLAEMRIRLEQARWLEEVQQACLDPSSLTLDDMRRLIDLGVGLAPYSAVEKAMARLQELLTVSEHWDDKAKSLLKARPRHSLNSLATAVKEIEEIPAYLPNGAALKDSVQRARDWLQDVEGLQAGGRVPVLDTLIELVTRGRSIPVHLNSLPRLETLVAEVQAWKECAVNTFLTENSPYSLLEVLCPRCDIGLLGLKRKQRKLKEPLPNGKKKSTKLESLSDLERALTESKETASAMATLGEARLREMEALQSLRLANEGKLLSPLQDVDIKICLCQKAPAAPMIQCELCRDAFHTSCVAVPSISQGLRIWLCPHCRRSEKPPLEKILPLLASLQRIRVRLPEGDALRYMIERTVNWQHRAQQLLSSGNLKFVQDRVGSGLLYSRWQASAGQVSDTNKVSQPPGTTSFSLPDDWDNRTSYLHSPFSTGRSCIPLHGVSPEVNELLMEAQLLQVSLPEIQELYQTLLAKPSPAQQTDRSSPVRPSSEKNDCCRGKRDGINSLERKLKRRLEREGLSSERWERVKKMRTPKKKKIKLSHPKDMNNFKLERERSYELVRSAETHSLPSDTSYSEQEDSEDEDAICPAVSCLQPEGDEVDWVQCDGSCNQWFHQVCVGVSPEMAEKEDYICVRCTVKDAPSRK

[2] = AlphaScreen counterscreen against bio-H3K4me2 peptide in the absence of enzyme (artifact signal); settings: for Artifact Signal (percent): effect of the compound when incubated with bio-H3K4me2 peptide (counterscreen, no enzyme); for Artifact signal: effect of the compound when it is incubated with bio-H3K4me2 peptide: counterscreen, no enzyme;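 as to all read-outs here: counterscreen run without enzyme against bio-H3K4me2 peptide to remove false positive hits from the JARID1 demethylase AlphaScreen screen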
[3] = high-throughput screen, compound 20 μM, standard demethylase conditions (10 μM α-KG, 50 μM Fe (II))
[4] = high-throughput screen, compound 20 μM, IDs marked *: additional hits under reaction condition with 1 mM α-KG
[5] = dose response at 15 μM (low) Fe (II), read-out: IC50 (μM) low Fe (II)
[6] = dose response at 50 μM (high) Fe (II), read-out: IC50 (μM) high Fe (II)

Molecule: N#CC(=CC=Cc1ccco1)C(N)=S (single isomer, unassigned) [YU144893]
- Assay − Artifact Signal (percent) [1]: 22.61%
- inhibition at 20 µM [1, 3]: 44.6%
- Assay Signal (percent) [1]: 62.72%
- Artifact Signal (percent) [2]: 40.11%

Molecule: Cn1c(C(C#N)=Cc2ccncc2)nc2ccccc21 (single isomer, unassigned) [YU146842]
- Assay − Artifact Signal (percent) [1]: 104.16%
- inhibition at 20 µM [1, 3]: 90.8%
- Assay Signal (percent) [1]: 97.21%
- Artifact Signal (percent) [2]: −6.95%

Molecule: Cc1c(C(=O)O)cccc1-c1ccc(C=C[N+](=O)[O-])o1 (single isomer, unassigned) [YU147801]
- Assay − Artifact Signal (percent) [1]: 14.43%
- inhibition at 20 µM [1, 3]: 56.9%
- Assay Signal (percent) [1]: 31.41%
- Artifact Signal (percent) [2]: 16.98%

Molecule: C=CCOc1c(Cl)cc(C=C[N+](=O)[O-])cc1OCC (single isomer, unassigned) [YU148636]
- Assay − Artifact Signal (percent) [1]: 11.11%
- inhibition at 20 µM [1, 3]: 34.7%
- Assay Signal (percent) [1]: 10.64%
- Artifact Signal (percent) [2]: −0.47%

Molecule: Cc1ccc(C(C#N)=Cc2ccc(N3CCOCC3)o2)cc1 (single isomer, unassigned) [YU149607]
- Assay − Artifact Signal (percent) [1]: 37.94%
- inhibition at 20 µM [1, 3]: 43.1%
- Assay Signal (percent) [1]: 40.44%
- Artifact Signal (percent) [2]: 2.50%

Molecule: Cn1c(SCC=Cc2ccccc2)nnc1-c1cnccn1 (single isomer, unassigned) [YU151184]
- inhibition at 20 µM [1, 3]: 33.8%
- Validation result of HTS active: effect of the compound in the JARID1B AlphaScreen demethylase assay [1]: 1.02
- Artifact signal: effect of the compound when it is incubated with bio-H3K4me2 peptide [2]: −5.59

Molecule: N#CC(=Cc1ccc(N2CCCCC2)o1)c1ccc([N+](=O)[O-])cc1 (single isomer, unassigned) [YU152765]
- Assay − Artifact Signal (percent) [1]: 9.56%
- inhibition at 20 µM [1, 3]: 42%
- Assay Signal (percent) [1]: 11.96%
- Artifact Signal (percent) [2]: 2.40%

Molecule: COc1cc(C=C[N+](=O)[O-])ccc1OCc1cccc(C(=O)O)c1 (single isomer, unassigned) [YU153545]
- Assay − Artifact Signal (percent) [1]: 8.98%
- inhibition at 20 µM [1, 3]: 101%
- Assay Signal (percent) [1]: 100.32%
- Artifact Signal (percent) [2]: 91.35%

Molecule: Cn1nnnc1SCC1=C(C(=O)O)N2C(=O)[C@H](NC(=O)C(O)c3ccccc3)C2SC1 (stereo in doubt) [YU034265, CEFAMANDOLE SODIUM, reference compound]
- inhibition at 20 µM [1, 4]: 40.5%

Molecule: O=C(OC[C@H]1O[C@@H](OC(=O)c2cc(O)c(O)c(OC(=O)c3cc(O)c(O)c(O)c3)c2)[C@H](OC(=O)c2cc(O)c(O)c(OC(=O)c3cc(O)c(O)c(O)c3)c2)[C@@H](OC(=O)c2cc(O)c(O)c(OC(=O)c3cc(O)c(O)c(O)c3)c2)[C@@H]1OC(=O)c1cc(O)c(O)c(OC(=O)c2cc(O)c(O)c(O)c2)c1)c1cc(O)c(O)c(OC(=O)c2cc(O)c(O)c(O)c2)c1 (stereo in doubt) [YU155507, TANNIC ACID, reference compound]
- Inhibitory effect (percent) [1, 3]: 105.46%

Molecule: O=C(O)/C=C/c1ccc(O)c(O)c1 [Caffeic acid, reference compound]
- IC50 [1, 5]: 1.71 µM
- IC50 [1, 6]: 2.88 µM

Molecule: Cn1c(/C(C#N)=C/c2ccncc2)nc2ccccc21 [ChemBridge 6339039]
- IC50 [1, 5]: 1.8 µM
- IC50 [1, 6]: 1.31 µM

Molecule: N#C/C(=C\c1ccncc1)c1nc2cc(C(F)(F)F)ccc2s1 [ChemBridge 7812182]
- IC50 [1, 5]: 1.66 µM
- IC50 [1, 6]: 1.15 µM

Molecule: O=c1c2ccccc2[se]n1-c1ccccc1 [Ebselen, ebselen, reference compound]
- IC50 ([1]; Fe (II) concentration not stated, read-out: IC50 against JARID1B): ~6 µM
- IC50 [1, 5]: 7.63 µM
- IC50 [1, 6]: 5.17 µM

Molecule: O=c1ccc2cc(O)c(O)cc2o1 [Esculetin, esculetin, reference compound]
- IC50 [1, 5]: 2.57 µM
- IC50 [1, 6]: 4.6 µM

Molecule: CC(C)(O)[C@@H]1[C@H]2OC(=O)[C@@H]1[C@]1(O)C[C@H]3O[C@]34C(=O)O[C@H]2[C@]14C [YU033619, PICROTIN, reference compound]
- inhibition at 20 µM [1]: 46.9%
- Validation result of HTS active: effect of the compound in the JARID1B AlphaScreen demethylase assay [1]: −12.66

Molecule: CC(=O)O[C@H]1C[C@@]2(C)[C@@H](C[C@@H](O)[C@H]3[C@@]4(C)CC[C@@H](O)[C@@H](C)[C@@H]4CC[C@@]32C)/C1=C(\CCC=C(C)C)C(=O)O [YU033837, FUSIDIC ACID, reference compound]
- inhibition at 20 µM [1, 3]: 63.1%
- Validation result of HTS active: effect of the compound in the JARID1B AlphaScreen demethylase assay [1]: 0.93

Molecule: Cc1ccccc1C(OCCN(C)C)c1ccccc1 (stereo not drawn) [YU033938, ORPHENADRINE CITRATE, reference compound]
- Artifact Signal (percent) [2]: 0.79%

Molecule: c1ccc2c(c1)CCCC2C1=NCCN1 (stereo not drawn) [YU034020, TETRAHYDROZOLINE HYDROCHLORIDE, reference compound]
- inhibition at 20 µM [1, 4]: 99.2%
- Validation result of HTS active: effect of the compound in the JARID1B AlphaScreen demethylase assay [1]: −5.13

Molecule: C[CH2][Hg][S]c1ccccc1C(=O)[O-] [YU034023, THIMEROSAL, reference compound]
- Artifact signal: effect of the compound when it is incubated with bio-H3K4me2 peptide [2]: −5.81

Molecule: CC(=O)[O][Hg][c]1ccccc1 [YU034074, PHEN[…], ACETATE, reference compound]
- Artifact signal: effect of the compound when it is incubated with bio-H3K4me2 peptide [2]: −10.79

Molecule: O=c1c2ccccc2[se]n1-c1ccccc1 [YU034226, EBSELEN, reference compound]
- inhibition at 20 µM [1, 4]: 56.5%
- inhibition at 20 µM [1, 3]: 41.4%

Molecule: O=C1c2c(O)ccc(O)c2C(=O)c2c(NCCNCCO)ccc(NCCNCCO)c21 [YU034420, MITOXANTHRONE HYDROCHLORIDE, reference compound]
- Assay − Artifact Signal (percent) [1]: 10.55%
- inhibition at 20 µM [1, 3]: 101%
- Assay Signal (percent) [1]: 99.87%

Molecule: OC1CCCCC1N1CCC(c2ccccc2)CC1 (stereo not drawn) [YU034447, VESAMICOL HYDROCHLORIDE, reference compound]
- Assay − Artifact Signal (percent) [1]: 8.85%
- inhibition at 20 µM [1]: 40.5%
- Assay Signal (percent) [1]: 8.67%

Molecule: Cc1cc(/C=C/c2ccc3cc(N(C)C)ccc3[n+]2C)c(C)n1-c1ccccc1 [YU034547, PYRVINIUM PAMOATE, reference compound]
- inhibition at 20 µM [1, 3]: 64.4%
- Validation result of HTS active: effect of the compound in the JARID1B AlphaScreen demethylase assay [1]: −3.96

Molecule: CC[C@H]1OC(=O)[C@H](C)[C@@H](OC2CC(C)(OC)C(O)C(C)O2)[C@H](C)[C@@H](S2(C)(=O)NC3C(N(C)C)CC(C)NC32)[C@](C)(O)C[C@@H](C)/C(=N\C)[C@H](C)[C@@H](O)[C@]1(C)O (stereo partly drawn) [YU035181]
- Artifact Signal (percent) [2]: 4.88%

Molecule: Cc1cc(C)nc(N(C#N)C(=S)N(C)C)n1 [YU145655]
- inhibition at 20 µM [1, 3]: 54.7%

Molecule: Cn1c(=O)n(C)c2cc(S(=O)(=O)NNc3ccccc3)ccc21 [YU152899]
- inhibition at 20 µM [1, 3]: 49.6%

Molecule: O=C(O[C@@H]1Cc2c(O)cc(O)cc2O[C@@H]1c1ccc(O)c(O)c1)c1cc(O)c(O)c(O)c1 [YU155085, EPICATECHIN MONOGALLATE, reference compound]
- inhibition at 20 µM [1, 3]: 99.5%

Molecule: O=C(O[C@@H]1Cc2c(O)cc(O)cc2O[C@@H]1c1cc(O)c(O)c(O)c1)c1cc(O)c(O)c(O)c1 [YU155090, EPIGALLOCATECHIN-3- MONOGALLATE, reference compound]
- Inhibitory effect (percent) [1, 3]: 98.42%

Molecule: COc1cccc2c1C(=O)c1c(O)c3c(c(O)c1C2=O)C[C@@](O)(C(C)=O)C[C@@H]3O[C@H]1C[C@H](N)[C@H](O)[C@H](C)O1 [YU155188, DAUNORUBICIN, reference compound]
- inhibition at 20 µM [1, 3]: 74.7%

Molecule: O=c1c(O)c(-c2ccc(O)c(O)c2)oc2c(O[C@@H]3O[C@H](CO)[C@@H](O)[C@H](O)[C@H]3O)c(O)cc(O)c12 [YU155353, GOSSYPIN, reference compound]
- inhibition at 20 µM [1, 3]: 89%

Molecule: O=c1c2cc(O)c(O)cc2oc2cc(O)c([C@@H]3O[C@H](CO)[C@@H](O)[C@H](O)[C@H]3O)c(O)c12 [YU155356, MANGIFERIN, reference compound]
- inhibition at 20 µM [1, 3]: 98.8%

Molecule: O=c1ccc2cc(O)c(O)cc2o1 [YU155534, ESCULETIN, reference compound]
- Artifact Signal (percent) [2]: 6.30%

Molecule: Cc1noc2c1C(c1ccc(O)c(O)c1)C1=C(CCCC1=O)N2 (stereo not drawn) [YU185529]
- inhibition at 20 µM [1, 3]: 61.5%

Molecule: O=C(Nc1ccc(N2Cc3ccccc3OC(c3ccccc3)C2)c(C(=O)O)c1)c1ccccc1F (stereo not drawn) [YU208215]
- inhibition at 20 µM [1, 3]: 44.6%

Molecule: Cl.Oc1cc2c(cc1O)[C@H]1c3ccccc3CN[C@@H]1CC2 [YU221065, Benzo[a]phenanthridine-10,11-diol, 5,6,6a,7,8,12b-hexahydro-, trans-, reference compound]
- Assay − Artifact Signal (percent) [1]: 55.73%
- inhibition at 20 µM [1, 3]: 49.1%
- Assay Signal (percent) [1]: 59.95%

Molecule: TYROTHRICIN [YU034048, reference compound]
- Inhibitory effect (percent) [1, 3]: 68.66%
